Columns and labels:
Format in all cases: in vivo
Conditions in all cases: evaluated after 13 days
[1] = test system: Ipomoea hederacea (IPOHE); assay: Pre-emergence herbicide test, glasshouse, percentage damage
Protocol: (§1) Seeds of a variety of test species are sown in standard soil in pots (Lolium perenne (LOLPE), Solanum nigrum (SOLNI), Amaranthus retoflexus (AMARE), Setaria faberi (SETFA), Echinochloa crus-galli (ECHCG), Ipomoea hederacea (IPOHE)). After cultivation for one day (pre-emergence) or after 8 days cultivation (post-emergence) under controlled conditions in a glasshouse (at 24/16° C., day/night; 14 hours light; 65% humidity), the plants are sprayed with an aqueous spray solution derived from the formulation of the technical active ingredient in acetone/water (50:50) solution containing 0.5% Tween 20 (polyoxyethelyene sorbitan monolaurate, CAS RN 9005-64-5). Compounds are applied at 500 g/ha unless otherwise stated. The test plants are then grown in a glasshouse under controlled conditions in a glasshouse (at 24/16° C., day/night; 14 hours light; 65% humidity) and watered twice daily. After 13 days for pre and post-emergence, the test is evaluated for the percentage damage caused to the plant. The biological activities are shown in the following table on a five point scale (5=81-100%; 4=61-80%; 3=41-60%; 2=21-40%; 1=0-20%).

[2] = test system: Echinochloa crus-galli (ECHCG); assay: as above
Protocol: as §1

Setaria faberi (SETFA) [3] = assay: as above
Protocol: as §1

Solanum nigrum (SOLNI) [4] = assay: as above
Protocol: as §1

Lolium perenne (LOLPE) [5] = assay: as above
Protocol: as §1

[6] = test system: Amaranthus retoflexus (AMARE); assay: as above
Protocol: as §1

[7] = test system: Ipomoea hederacea (IPOHE); assay: Post-emergence herbicide test, glasshouse, percentage damage
Protocol: as §1

[8] = test system: Echinochloa crus-galli (ECHCG); assay: as above
Protocol: as §1

Setaria faberi (SETFA) [9] = assay: as above
Protocol: as §1

Solanum nigrum (SOLNI) [10] = assay: as above
Protocol: as §1

Lolium perenne (LOLPE) [11] = assay: as above
Protocol: as §1

[12] = test system: Amaranthus retoflexus (AMARE); assay: as above
Protocol: as §1

| Structure (SMILES) | Pre-emergence Test IPOHE percentage damage (five point scale) ([1]; rate 1000 g/ha) | Pre-emergence Test ECHCG percentage damage (five point scale) ([2]; rate 1000 g/ha) | Pre-emergence Test SETFA percentage damage (five point scale) (Setaria faberi (SETFA) [3]; rate 1000 g/ha) | Pre-emergence Test SOLNI percentage damage (five point scale) (Solanum nigrum (SOLNI) [4]; rate 1000 g/ha) | Pre-emergence Test LOLPE percentage damage (five point scale) (Lolium perenne (LOLPE) [5]; rate 1000 g/ha) | Pre-emergence Test AMARE percentage damage (five point scale) ([6]; rate 1000 g/ha) | percentage damage caused to the plant, IPOHE ([7]; 1000 g/ha) | percentage damage caused to the plant, ECHCG ([8]; 1000 g/ha) | percentage damage caused to the plant, SETFA (Setaria faberi (SETFA) [9]; 1000 g/ha) | percentage damage caused to the plant, SOLNI (Solanum nigrum (SOLNI) [10]; 1000 g/ha) | percentage damage caused to the plant, LOLPE (Lolium perenne (LOLPE) [11]; 1000 g/ha) | percentage damage caused to the plant, AMARE ([12]; 1000 g/ha) | also measured |
| --- | --- | --- | --- | --- | --- | --- | --- | --- | --- | --- | --- | --- | --- |
| Fc1cc(Cl)cnc1Oc1cccc(F)c1-c1cc(C(F)(F)F)no1 [Compound A31] | 5 (5=81-100%) | 5 (5=81-100%) | 5 (5=81-100%) | 5 (5=81-100%) | 5 (5=81-100%) | 5 (5=81-100%) | 5 (5=81-100%) | 5 (5=81-100%) | 5 (5=81-100%) | 5 (5=81-100%) | 5 (5=81-100%) | 5 (5=81-100%) |  |
| Fc1cc(Cl)cnc1Oc1c(F)cccc1-c1cc(C(F)F)no1 [Compound A93] | 3 (3=41-60%) | 4 (4=61-80%) | 4 (4=61-80%) | 4 (4=61-80%) | 3 (3=41-60%) | 4 (4=61-80%) | 3 (3=41-60%) | 4 (4=61-80%) | 5 (5=81-100%) | 3 (3=41-60%) | 3 (3=41-60%) | 5 (5=81-100%) |  |
| Fc1cc(Cl)cnc1Oc1ccccc1-c1cc(C(F)(F)F)cs1 [Compound A97, 5-chloro-3-fluoro-2-[2-[4-(trifluoromethyl)-2-thienyl]phenoxy]pyridine] | 2 (2=21-40%) | 3 (3=41-60%) | 4 (4=61-80%) | 2 (2=21-40%) | 2 (2=21-40%) | 4 (4=61-80%) | 4 (4=61-80%) | 4 (4=61-80%) | 5 (5=81-100%) | 4 (4=61-80%) | 3 (3=41-60%) | 5 (5=81-100%) |  |
| Fc1cc(Cl)cnc1Oc1ccccc1-c1cc(C(F)F)no1 [Compound A43] | 4 (4=61-80%) | 5 (5=81-100%) | 5 (5=81-100%) | 5 (5=81-100%) | 5 (5=81-100%) | 5 (5=81-100%) | 4 (4=61-80%) | 4 (4=61-80%) | 5 (5=81-100%) | 5 (5=81-100%) | 5 (5=81-100%) | 5 (5=81-100%) |  |
| N#Cc1cc(Cl)cnc1Oc1cccc(F)c1-c1cc(C(F)F)no1 [Compound A37] | 5 (5=81-100%) | 5 (5=81-100%) | 5 (5=81-100%) | 5 (5=81-100%) | 5 (5=81-100%) | 5 (5=81-100%) | 5 (5=81-100%) | 4 (4=61-80%) | 5 (5=81-100%) | 5 (5=81-100%) | 4 (4=61-80%) | 5 (5=81-100%) |  |
| Fc1cccc(Oc2ccc(Cl)cn2)c1-c1cc(C(F)F)no1 [Compound A9] |  |  |  |  |  |  |  |  |  |  |  |  | Pre-emergence Test IPOHE percentage damage (five point scale) ([1]; rate 500 g/ha): 3 (3=41-60%); Pre-emergence Test ECHCG percentage damage (five point scale) ([2]; rate 500 g/ha): 5 (5=81-100%); Pre-emergence Test SETFA percentage damage (five point scale) (Setaria faberi (SETFA) [3]; rate 500 g/ha): 5 (5=81-100%); Pre-emergence Test SOLNI percentage damage (five point scale) (Solanum nigrum (SOLNI) [4]; rate 500 g/ha): 5 (5=81-100%); Pre-emergence Test LOLPE percentage damage (five point scale) (Lolium perenne (LOLPE) [5]; rate 500 g/ha): 4 (4=61-80%); Pre-emergence Test AMARE percentage damage (five point scale) ([6]; rate 500 g/ha): 5 (5=81-100%); percentage damage caused to the plant, IPOHE ([7]; 500 g/ha): 4 (4=61-80%); percentage damage caused to the plant, ECHCG ([8]; 500 g/ha): 5 (5=81-100%); percentage damage caused to the plant, SETFA (Setaria faberi (SETFA) [9]; 500 g/ha): 5 (5=81-100%); percentage damage caused to the plant, SOLNI (Solanum nigrum (SOLNI) [10]; 500 g/ha): 5 (5=81-100%); percentage damage caused to the plant, LOLPE (Lolium perenne (LOLPE) [11]; 500 g/ha): 5 (5=81-100%); percentage damage caused to the plant, AMARE ([12]; 500 g/ha): 5 (5=81-100%) |
| Cc1cccc(-c2cc(C(F)F)no2)c1Oc1ncc(Cl)cc1F [Compound A94] | 1 (1=0-20%) | 3 (3=41-60%) | 2 (2=21-40%) | 2 (2=21-40%) | 2 (2=21-40%) | 4 (4=61-80%) | 1 (1=0-20%) | 2 (2=21-40%) | 3 (3=41-60%) | 4 (4=61-80%) | 2 (2=21-40%) | 4 (4=61-80%) |  |
| Fc1cccc(Oc2ccc(Br)cn2)c1-c1cc(C(F)F)no1 [Compound A41] | 3 (3=41-60%) | 5 (5=81-100%) | 5 (5=81-100%) | 5 (5=81-100%) | 5 (5=81-100%) | 5 (5=81-100%) | 5 (5=81-100%) | 5 (5=81-100%) | 5 (5=81-100%) | 5 (5=81-100%) | 5 (5=81-100%) | 5 (5=81-100%) |  |
| FC(F)c1cc(-c2c(Cl)cccc2Oc2ccc(Br)cn2)on1 [Compound A119] | 4 (4=61-80%) | 5 (5=81-100%) | 5 (5=81-100%) | 4 (4=61-80%) | 5 (5=81-100%) | 5 (5=81-100%) | 5 (5=81-100%) | 4 (4=61-80%) | 5 (5=81-100%) | 5 (5=81-100%) | 5 (5=81-100%) | 5 (5=81-100%) |  |
| COc1csc(-c2ccccc2Oc2ncc(Cl)cc2F)c1 [Compound A71] | 1 (1=0-20%) | 1 (1=0-20%) | 1 (1=0-20%) | 1 (1=0-20%) | 1 (1=0-20%) | 5 (5=81-100%) | 1 (1=0-20%) | 1 (1=0-20%) | 2 (2=21-40%) | 5 (5=81-100%) | 1 (1=0-20%) | 4 (4=61-80%) |  |
| N#Cc1cccc(Oc2ccc(Cl)cn2)c1-n1cc(C(F)(F)F)cn1 [Compound A32] | 5 (5=81-100%) | 5 (5=81-100%) | 5 (5=81-100%) | 5 (5=81-100%) | 4 (4=61-80%) | 5 (5=81-100%) | 5 (5=81-100%) | 5 (5=81-100%) | 5 (5=81-100%) | 5 (5=81-100%) | 5 (5=81-100%) | 5 (5=81-100%) |  |
